Legend:
[1] = target: T1, Srt1 (Mycosarcoma maydis, UniProt A0A0D1E1N5); experiment: competition with […]-sucrose uptake in srt1-expressing S. cerevisiae; type: cell-based; settings: 10 mM competitor (100-fold excess) against 0.1 mM 14C-sucrose; pH 5.0, 29°C
T1 construct: gene UMAG_02374; full-length ORF, 546 residues, 12 predicted TMDs, untagged in vector NEV-E; expressed in invertase-deficient S. cerevisiae SEY2102

[2] = tested on: OC[C@H]1O[C@@](CO)(O[C@H]2O[C@H](CO)[C@@H](O)[C@H](O)[C@H]2O)[C@@H](O)[C@@H]1O; experiment: cells, lysate or membranes; settings: pH 5.0, 50 mM Na-phosphate, 29°C, H+ symport, labelled compound

T1 sequence (A0A0D1E1N5 entry or part of it): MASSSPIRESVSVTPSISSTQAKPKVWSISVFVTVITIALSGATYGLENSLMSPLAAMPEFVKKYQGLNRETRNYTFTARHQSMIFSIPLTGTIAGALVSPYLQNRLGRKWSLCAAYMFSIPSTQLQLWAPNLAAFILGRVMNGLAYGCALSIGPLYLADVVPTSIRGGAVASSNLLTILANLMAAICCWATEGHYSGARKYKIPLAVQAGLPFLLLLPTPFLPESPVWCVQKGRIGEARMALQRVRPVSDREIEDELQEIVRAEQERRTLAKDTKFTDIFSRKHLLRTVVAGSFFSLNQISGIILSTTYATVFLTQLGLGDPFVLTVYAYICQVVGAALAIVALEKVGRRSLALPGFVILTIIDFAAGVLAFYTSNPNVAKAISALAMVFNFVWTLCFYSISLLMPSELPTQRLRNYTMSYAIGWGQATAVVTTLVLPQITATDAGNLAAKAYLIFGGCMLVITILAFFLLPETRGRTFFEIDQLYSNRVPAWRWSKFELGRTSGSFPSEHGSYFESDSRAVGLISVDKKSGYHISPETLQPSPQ

Compound	inhibition of sucrose uptake [1]	Km [2]
OC[C@H]1O[C@H](OC[C@H]2O[C@H](O[C@]3(CO)O[C@H](CO)[C@@H](O)[C@@H]3O)[C@H](O)[C@@H](O)[C@@H]2O)[C@H](O)[C@@H](O)[C@H]1O [raffinose]	raffinose was the only alternative compound that caused a minor inhibition of sucrose uptake	
Srt1 (Mycosarcoma maydis)		26 ± 4.3 µM
